Assay results reported in patent US8053627B2, “Methods for treating demyelination disorders” (University of Chicago, priority 2005, dated 2011).

System: myelinating oligodendrocytes in the CNS
Experiment: Ectopic CNS expression of IFN-γ during development (released from doxycycline at E14), wild-type or PERK+/− background
Format: in vivo, mice
Text: To study the effect of INF-γ on the myelination of oligodendrocytes during mouse development, transgenic mice that allow for temporally regulated delivery of IFN-γ to the CNS using the tetracycline (tet) controllable system (Lin, et al. (2004) J. Neurosci. 24: 10074-10083) were generated. To drive tTA expression in astrocytes, the transcriptional regulatory region of the glial fibrillary acidic protein (GFAP) gene was chosen (Brenner, et al. (1994) J. Neurosci. 14: 1030-1037). GFAP/tTA mice were mated with TRE/IFN-γ mice to produce animals hemizygous for both transgenes. When these mice are maintained on doxycycline (DOX+), expression of the IFN-γ transgene is repressed (FIG. 10A); when the double transgenic mice are released from doxycycline (DOX−) INF-γ is expressed. For the purpose of these experiments, mice received doxycycline up to day 14 of development (E14), at which time the experimental animals (DOX−) stopped receiving doxycycline, while the control animals (DOX+) were continuously fed the dug. The mRNA for IFN-γ could be detected in the DOX− mice as early as 10 days after birth (data not shown).
Real time PCR analysis was performed to determine the levels of expression of INF-γ, MHC-1, BIP, CHOP, and caspase 12. The primers for the PCR reactions for BIP, CHP and caspase 12 are given in example 1. The sense and antisense primers for INF-γ were […] (SEQ ID NO: 39) and […] (SEQ ID NO: 40), respectively; and the sense and antisense primers for MHC-1 were MHC-I sense primer: ATTCCCCAAAGGCCCATGT (SEQ ID NO: 1); and MHC-I antisense primer: […] (SEQ ID NO: 2).
Western blot analysis was performed on the CNS of 14 day old mice to determine the expression of caspase-12 as described in Example 6.
Brain and spinal cord tissue were analyzed using immunohistochemical methods as follows. Anesthetized mice were perfused through the left cardiac ventricle with 4% paraformaldehyde in 0.1M PBS. The half-saggital brains and transcervical spinal cord were removed, postfixed with paraformaldehyde, cryopreserved in 30% sucrose, embedded in OCT and frozen on dry ice. Frozen sections were cut in a cryostat at a thickness of 10 μm. Coronal sections at the fornix region of the corpus callosum corresponding to Sidman sections 241-251 were selected for use, and all comparative analyses were restricted to midline corpus callosum (Sidman, et al. (1971) Atlas of the Mouse Brain and Spinal Cord (Harvard Univ. Press, Cambridge, Mass.). For immunohistochemistry, frozen sections were treated with −20° C. acetone, blocked with PBS containing 10% NGS and 0.1% Triton X-100 and incubated overnight with the primary antibody diluted in blocking solution. Appropriate fluorochrome- or enzyme-labeled secondary antibodies (Vector Laboratories, Burlingame, Calif.) were used for detection. An antibody against CC1 (APC7, 1:50; EMD Biosciences, Inc., La Jolla, Calif.) was used as a marker for mature oligodendrocytes. Antibody against MBP (1:1000; Sternberger Monoclonals, Lutherville, Mass.) was used to verify the degree of myelination. Antibody against active-caspase-3 (1:50, Cell signaling Technology, Beverly, Mass.) was used as a marker for apoptotic cells. Fluorescent stained sections were mounted with Vectashield mounting medium with DAPI (Vector Laboratories) and visualized with a Zeiss Axioplan fluorescence microscope. Images were captured using a Photometrics PXL CCD camera connected to an Apple Macintosh computer using the Open Lab software suite. Immunopositive cells were quantified by counting positive cells within the median of the corpus callosum, confined to an area of 0.04 mm^2. Only those cells with nuclei observable by DAPI staining were counted. Each MBP immunostaining slide was scored on a scale of zero to four. A score of zero indicates complete demyelination, and a score of four indicates normal myelination in the corpus callosum of adult mice. […]

[1] = PERK+/− background, released from doxycycline at E14
[2] = wild-type background, released from doxycycline at E14

## IFN-γ: pleotropic cytokine secreted by activated T lymphocytes and natural killer cells; delivered to the CNS by transgene or added as recombinant protein
CNS, PND 14, DOX− from E14
  BIP expression relative to control levels: approximately 1.6 times
  CHOP expression relative to control levels: ~2 times
  caspase-12 expression: strongly enhanced
DOX− double transgenic mice, wild-type background
  state of myelination: mildly hypomyelinated
PERK+/− background, 14-day-old
  decrease of oligodendrocyte numbers in the spinal cord (CC1): more than 50%
[1]
  mice that died by post natal day (PND) 27: more than 90%
  mice that experienced tonic seizures: approximately two-thirds
PERK+/− mice expressing IFN-γ, 14-day-old
  unmyelinated axons in the spinal cord: 81%±14.9%
Released from doxycycline at E 14
  TUNEL positive oligodendrocytes in the cervical spinal cord, PERK+/− relative to wild-type background: 2.5 times
[2]
  survival: normal survival
  unmyelinated axons in the spinal cord: 30%±12.9%
